Results from US10577373B2, “TYK2 inhibitors and uses thereof” (Nimbus Lakshmi, Inc., priority 2017, dated 2020).
Like-named read-outs stand apart in the source and are kept apart here.

Tested on: GM-CSF induced STAT5 phosphorylation mediated by the JAK2/JAK2 homdimeric complex
Test: GM-CSF Induced pSTAT5 in Human PBMC
Details: GM-CSF 5 ng/mL for 20 minutes, pSTAT5
[1] = Homo sapiens, PBMC, 20 min, read-out: PBMC_GMCSF_pSTAT5 IC50, human PBMC

Source text: Human PBMC are isolated from buffy coat and are stored frozen for assays as needed.

| SMILES | IC50 [1] [µM] | IC50 (read-out: PBMC_GMCSF_pSTAT5 IC50, human PBMC) [µM] |
| --- | --- | --- |
| [2H]C([2H])([2H])Oc1ncccc1Nc1cc(NC)n2ncc(C(=O)NC3CC4(COC4)C3)c2n1 [I-417, 5-((2-(methoxy-d3)pyridin-3-yl)amino)-7-(methylamino)-N-(2-oxaspiro[3.3]heptan-6-yl)pyrazolo[1,5-a]pyrimidine-3-carboxamide] | > 50 | – |
| CNc1cc(Nc2cccn([C@H]3CCCC[C@H]3O)c2=O)nc2c(C(=O)NC3CC3)cnn12 [I-878] | > 50 | – |
| CNc1cc(Nc2cc(Cl)cn(-c3cnn(C)c3F)c2=O)nc2c(C(=O)NC3CC3)cnn12 [I-955] | > 12.5 | – |
| CNc1cc(Nc2cccn([C@@H]3CCC[C@@H](OC)C3)c2=O)nc2c(C(=O)NC3CC3)cnn12 [I-957] | > 50 | – |
| CNc1cc(Nc2cccn([C@H]3CCC[C@H](OC)C3)c2=O)nc2c(C(=O)NCC(C)(C)CO)cnn12 [I-958] | > 50 | – |
| CNc1cc(Nc2cccn([C@H]3CC[C@](C)(OC)CC3)c2=O)nc2c(C(=O)N[C@@H]3CC[C@H]3O)cnn12 [I-962] | – | > 50 |
| CNc1cc(Nc2cccn([C@H]3CCC[C@H]3O)c2=O)nc2c(C(=O)NC3CC3)cnn12 [I-963] | > 50 | – |
| CNc1cc(Nc2cccn([C@H]3CCC[C@H]3O)c2=O)nc2c(C(=O)N[C@@H]3C[C@@H]3F)cnn12 [I-965] | > 50 | – |
| CNc1cc(Nc2cccc(N3CCCC3=O)n2)nc2c(C(=O)N[C@H]3CC[C@H]3O)cnn12 [I-969] | > 50 | – |
| CNc1cc(Nc2cccn(-c3ccccn3)c2=O)nc2c(C(=O)N[C@H]3CC[C@@H]3O)cnn12 [I-971] | > 50 | – |
| CNc1cc(Nc2cccn([C@H]3CCC[C@@H](OC)C3)c2=O)nc2c(C(=O)N[C@@H]3CC[C@H]3O)cnn12 [I-993] | > 50 | – |
| CNc1cc(Nc2cccn([C@H]3CCC[C@@H](OC)C3)c2=O)nc2c(C(=O)N[C@H]3CC[C@@H]3OC)cnn12 [I-996] | > 50 | – |
| CNc1cc(Nc2cccn([C@@H]3CC[C@H]3O)c2=O)nc2c(C(=O)N[C@@H]3C[C@@H]3F)cnn12 [I-999] | > 50 | – |
| CNc1cc(Nc2cccn(-c3cccc(F)c3)c2=O)nc2c(C(=O)N[C@H]3CC[C@H]3O)cnn12 [I-1004] | > 12.5 | – |
| CNc1cc(Nc2cccn([C@H]3CCC[C@H](OC)C3)c2=O)nc2c(C(=O)NCC3(CO)CC3)cnn12 [I-1010] | > 50 | – |

The remaining lines, values ahead:

| IC50 [1] [µM] | IC50 (read-out: PBMC_GMCSF_pSTAT5 IC50, human PBMC) [µM] | SMILES |
| --- | --- | --- |
| > 12.5 | – | CNc1cc(-c2cn(C3CC3)c3ncccc23)nc2c(C(=O)N[C@H]3CC[C@@H]3OC)cnn12 (stereo in doubt) [I-1067, 5-(1-cyclopropyl-1H-pyrrolo[2,3-b]pyridin-3-yl)-N-(2-methoxycyclobutyl)-7-(methylamino)pyrazolo[1,5-a]pyrimidine-3-carboxamide] |
| > 12.5 | – | CNc1cc(-c2cn(C(C)C)c3ncc(F)cc23)nc2c(C(=O)N[C@H]3CC[C@H]3O)cnn12 [I-1013, 5-(5-fluoro-1-isopropyl-1-pyrrolo[2,3-b]pyridin-3-yl)-N-(2-hydroxycyclobutyl)-7-(methylamino)pyrazolo[1,5-a]pyrimidine-3-carboxamide] |
| > 12.5 | – | CNc1cc(Nc2cccn(-c3cnco3)c2=O)nc2c(C(=O)N[C@H]3CC[C@H]3O)cnn12 [I-1017] |
| > 12.5 | – | CNc1cc(Nc2cccn([C@@H]3CC[C@H]3OC)c2=O)nc2c(C(=O)N[C@@H]3C[C@@H]3F)cnn12 [I-1022] |
| > 50 | – | CNc1cc(Nc2cccn([C@H]3CCC[C@H](OC)C3)c2=O)nc2c(C(=O)NC3CC3)cnn12 [I-1025] |
| > 2.5 | – | CNc1cc(Nc2cccn([C@@H]3CCC[C@@H](O)C3)c2=O)nc2c(C(=O)N[C@@H]3C[C@@H]3F)cnn12 [I-1029] |
| > 2.5 | – | CNc1cc(Nc2cccn(-c3ccccc3F)c2=O)nc2c(C(=O)N[C@H]3CC[C@H]3O)cnn12 [I-1035] |
| > 50 | – | CNc1cc(Nc2cccn(-c3ccccc3F)c2=O)nc2c(C(=O)N[C@H]3CC[C@@H]3O)cnn12 [I-1038] |
| > 2.5 | – | CNc1cc(Nc2cccn([C@H]3CCC[C@H](OC)C3)c2=O)nc2c(C(=O)N[C@@H]3C[C@@H]3F)cnn12 [I-1042] |
